Measurements published in PubChem BioAssay (NCI).
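Briefly, cells in 96-well plates were exposed to five compound concentrations for 48 h, and endpoints were estimated by linear interpolation. Definition used: TGI = concentration required for complete inhibition of growth.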

Experiments:
Assay in all cases: NCI-60 cell line screen, 48 h
A549 NSCLC = test system: A549 NSCLC
A498 renal = test system: A498 renal
LOX IMVI melanoma = test system: LOX IMVI melanoma
ACHN renal = test system: ACHN renal
PC-3 prostate = test system: PC-3 prostate
COLO 205 colon = test system: COLO 205 colon
SNB-75 CNS = test system: SNB-75 CNS
SF-539 CNS = test system: SF-539 CNS
CAKI-1 renal = test system: CAKI-1 renal
MOLT-4 leukemia = test system: MOLT-4 leukemia
HOP-62 NSCLC = test system: HOP-62 NSCLC
KM12 colon = test system: KM12 colon
SK-OV-3 ovarian = test system: SK-OV-3 ovarian
OVCAR-4 ovarian = test system: OVCAR-4 ovarian
MDA-MB-435 = test system: MDA-MB-435
NCI-H460 lung = test system: NCI-H460 lung
OVCAR-5 ovarian = test system: OVCAR-5 ovarian
786-0 renal = test system: 786-0 renal
SN12C renal = test system: SN12C renal
HCC-2998 colon = test system: HCC-2998 colon
SK-MEL-2 melanoma = test system: SK-MEL-2 melanoma
SF-268 CNS = test system: SF-268 CNS
HCT-116 colon = test system: HCT-116 colon
BT-549 breast = test system: BT-549 breast
NCI-H522 lung = test system: NCI-H522 lung
HOP-92 NSCLC = test system: HOP-92 NSCLC
HCT-15 colon = test system: HCT-15 colon
OVCAR-3 ovarian = test system: OVCAR-3 ovarian
SNB-19 CNS = test system: SNB-19 CNS
MDA-N = test system: MDA-N
K-562 leukemia = test system: K-562 leukemia
SK-MEL-5 melanoma = test system: SK-MEL-5 melanoma
NCI-H23 lung = test system: NCI-H23 lung
TK-10 renal = test system: TK-10 renal
IGROV1 ovarian = test system: IGROV1 ovarian
T-47D breast = test system: T-47D breast
CCRF-CEM leukemia = test system: CCRF-CEM leukemia
OVCAR-8 ovarian = test system: OVCAR-8 ovarian
UACC-257 melanoma = test system: UACC-257 melanoma
HS 578T breast = test system: HS 578T breast
MDA-MB-231 breast = test system: MDA-MB-231 breast
DU-145 prostate = test system: DU-145 prostate
RXF 393 renal = test system: RXF 393 renal
NCI-H226 lung = test system: NCI-H226 lung
SW-620 colon = test system: SW-620 colon
MCF7 breast = test system: MCF7 breast
SK-MEL-28 melanoma = test system: SK-MEL-28 melanoma
NCI/ADR-RES ovarian = test system: NCI/ADR-RES ovarian
M14 melanoma = test system: M14 melanoma
SF-295 CNS = test system: SF-295 CNS
UACC-62 melanoma = test system: UACC-62 melanoma
UO-31 renal = test system: UO-31 renal
HL-60(TB) leukemia = test system: HL-60(TB) leukemia
U251 CNS = test system: U251 CNS
HT29 colon = test system: HT29 colon
EKVX NSCLC = test system: EKVX NSCLC
RPMI-8226 leukemia = test system: RPMI-8226 leukemia
MALME-3M melanoma = test system: MALME-3M melanoma
SR leukemia = test system: SR leukemia

`CC(C)C(Br)CC/C(CBr)=C(\Cl)CCl` (stereo not drawn) showed a TGI (A549 NSCLC) of 33.3 µM, a TGI (A498 renal) of 35 µM and a TGI (LOX IMVI melanoma) of 1.08 µM. It also gave a TGI (ACHN renal) of 28.2 µM, a TGI (PC-3 prostate) of 16.3 µM and a TGI (COLO 205 colon) of 8.53 µM. For the same molecule, the TGI (SNB-75 CNS) was 13.4 µM, the TGI (SF-539 CNS) was 11.4 µM and the TGI (CAKI-1 renal) was 9.89 µM. The TGI (MOLT-4 leukemia) was 2.36 µM, the TGI (HOP-62 NSCLC) was 30.3 µM and the TGI (KM12 colon) was 17.9 µM. The TGI (SK-OV-3 ovarian) was 11.3 µM, the TGI (OVCAR-4 ovarian) was 6.48 µM and the TGI (MDA-MB-435) was 5.16 µM. For the same molecule, the TGI (NCI-H460 lung) was 30.6 µM, the TGI (OVCAR-5 ovarian) was 23.3 µM and the TGI (786-0 renal) was 3.49 µM. The TGI (SN12C renal) was 8.5 µM, the TGI (HCC-2998 colon) was 26.3 µM and the TGI (SK-MEL-2 melanoma) was 4.35 µM. The TGI (SF-268 CNS) was 27.9 µM, the TGI (HCT-116 colon) was 5.11 µM and the TGI (BT-549 breast) was 3.27 µM. The TGI (NCI-H522 lung) was 2.02 µM, the TGI (HOP-92 NSCLC) was 6.84 µM and the TGI (HCT-15 colon) was 4.82 µM. The TGI (OVCAR-3 ovarian) was 8.21 µM, the TGI (SNB-19 CNS) was 31.1 µM and the TGI (MDA-N) was 3.81 µM. For the same molecule, the TGI (K-562 leukemia) was 3.03 µM, the TGI (SK-MEL-5 melanoma) was 3.8 µM and the TGI (NCI-H23 lung) was 12.3 µM. For the same molecule, the TGI (TK-10 renal) was 20.1 µM, the TGI (IGROV1 ovarian) was 3.64 µM and the TGI (T-47D breast) was 3.43 µM. For the same molecule, the TGI (CCRF-CEM leukemia) was 0.995 µM, the TGI (OVCAR-8 ovarian) was 9.82 µM and the TGI (UACC-257 melanoma) was 9.52 µM. It also gave a TGI (HS 578T breast) of 15.4 µM, a TGI (MDA-MB-231 breast) of 7.71 µM and a TGI (DU-145 prostate) of 25.2 µM. It also gave a TGI (RXF 393 renal) of 3.66 µM, a TGI (NCI-H226 lung) of 6.97 µM and a TGI (SW-620 colon) of 3.94 µM. For the same molecule, the TGI (MCF7 breast) was 19.3 µM, the TGI (SK-MEL-28 melanoma) was 10.1 µM and the TGI (NCI/ADR-RES ovarian) was 16.2 µM. For the same molecule, the TGI (M14 melanoma) was 3.82 µM, the TGI (SF-295 CNS) was 28.7 µM and the TGI (UACC-62 melanoma) was 7.71 µM. For the same molecule, the TGI (UO-31 renal) was 15.8 µM, the TGI (HL-60(TB) leukemia) was 3.86 µM and the TGI (U251 CNS) was 17.5 µM. For the same molecule, the TGI (HT29 colon) was 4.09 µM, the TGI (EKVX NSCLC) was 31.9 µM and the TGI (RPMI-8226 leukemia) was 4.49 µM. The TGI (MALME-3M melanoma) was 15.2 µM and the TGI (SR leukemia) was 3.71 µM.

Molecule `COC(=O)c1cc2c3c(c1)Oc1cc(C(=O)OC)cc4c1C3c1c(cc(C(=O)OC)cc1O4)O2` has a TGI (A549 NSCLC) greater than 48.3 µM, a TGI (A498 renal) greater than 94.6 µM and a TGI (LOX IMVI melanoma) greater than 46.1 µM. The TGI (ACHN renal) was 26.2 µM, the TGI (PC-3 prostate) was greater than 53.6 µM and the TGI (COLO 205 colon) was greater than 91.5 µM. For the same molecule, the TGI (SNB-75 CNS) was 20 µM, the TGI (SF-539 CNS) was 33 µM and the TGI (CAKI-1 renal) was 27.8 µM. It also gave a TGI (MOLT-4 leukemia) greater than 100 µM, a TGI (HOP-62 NSCLC) of 23.5 µM and a TGI (KM12 colon) greater than 49.7 µM. The TGI (SK-OV-3 ovarian) was 42.4 µM, the TGI (OVCAR-4 ovarian) was greater than 100 µM and the TGI (MDA-MB-435) was greater than 100 µM. For the same molecule, the TGI (NCI-H460 lung) was greater than 100 µM, the TGI (OVCAR-5 ovarian) was greater than 66.1 µM and the TGI (786-0 renal) was 23 µM. It also gave a TGI (SN12C renal) greater than 100 µM, a TGI (HCC-2998 colon) greater than 100 µM and a TGI (SK-MEL-2 melanoma) greater than 100 µM. For the same molecule, the TGI (SF-268 CNS) was 30 µM, the TGI (HCT-116 colon) was greater than 100 µM and the TGI (BT-549 breast) was greater than 100 µM. The TGI (NCI-H522 lung) was 15.5 µM, the TGI (HOP-92 NSCLC) was greater than 31.6 µM and the TGI (HCT-15 colon) was greater than 100 µM. It also gave a TGI (OVCAR-3 ovarian) of 33 µM, a TGI (SNB-19 CNS) greater than 62.9 µM and a TGI (MDA-N) greater than 100 µM. For the same molecule, the TGI (K-562 leukemia) was greater than 100 µM, the TGI (SK-MEL-5 melanoma) was 14.3 µM and the TGI (NCI-H23 lung) was greater than 72 µM. For the same molecule, the TGI (TK-10 renal) was greater than 56.9 µM, the TGI (IGROV1 ovarian) was 26.5 µM and the TGI (T-47D breast) was greater than 100 µM. It also gave a TGI (CCRF-CEM leukemia) of 96.9 µM, a TGI (OVCAR-8 ovarian) of 17.1 µM and a TGI (UACC-257 melanoma) greater than 100 µM. The TGI (HS 578T breast) was 41.1 µM, the TGI (MDA-MB-231 breast) was greater than 100 µM and the TGI (DU-145 prostate) was greater than 41.3 µM. For the same molecule, the TGI (RXF 393 renal) was 16.5 µM, the TGI (NCI-H226 lung) was 13.6 µM and the TGI (SW-620 colon) was greater than 100 µM. It also gave a TGI (MCF7 breast) greater than 56.3 µM, a TGI (SK-MEL-28 melanoma) greater than 100 µM and a TGI (NCI/ADR-RES ovarian) of 13 µM. For the same molecule, the TGI (M14 melanoma) was greater than 95.7 µM, the TGI (SF-295 CNS) was 26.4 µM and the TGI (UACC-62 melanoma) was greater than 75.5 µM. The TGI (UO-31 renal) was greater than 100 µM, the TGI (HL-60(TB) leukemia) was greater than 29.3 µM and the TGI (U251 CNS) was 41.8 µM. For the same molecule, the TGI (HT29 colon) was 38.3 µM, the TGI (EKVX NSCLC) was 46.4 µM and the TGI (RPMI-8226 leukemia) was greater than 100 µM. It also gave a TGI (MALME-3M melanoma) of 37.2 µM and a TGI (SR leukemia) greater than 100 µM.
